According to patent US12036226B2, “Methods of treating subjects having diabetes with chronic kidney disease” (Poxel SA, priority 2018, dated 2024):

System: subjects with T2DM and CKD stage 3B or 4
Assay: Phase 1b 28-day safety, tolerability and PK study in subjects with T2DM and CKD stage 3B or 4
Type: in vivo
From the text: An Open Label, Parallel Arm Study to Assess the Safety, Tolerability, and Pharmacokinetics of Imeglimin in Subjects with Type 2 Diabetes Mellitus (T2DM) and Moderate to Severe Chronic Kidney Disease (CKD)
This Phase 1b study is to assess the safety, tolerability and pharmacokinetics (PK) of imeglimin in subjects with T2DM and CKD stage 3B or 4.
Subjects will be randomly allocated to receive one of three treatments or placebo.
Doses which are below the minimally acceptable doses are acceptable if stable for 12 weeks prior to Screening as per prescribing information. […] Primary Outcome Measures […]
Safety can be evaluated by assessment of clinical laboratory tests, physical examinations, vital signs measurements, and ECG readings at various time points during the study, and by the documentation of AEs.
The incidence of treatment-emergent adverse events (TEAE) will be summarized by treatment.
Plasma lactate will be summarized descriptively by absolute value at each visit by treatment group, together with the corresponding changes from baseline.
Pharmacokinetics (PK) data can be descriptively summarized by treatment group. PK parameters will be determined using noncompartmental methods. […] Steady-state can be evaluated using the trough concentration data.

C[C@H]1N=C(N(C)C)N=C(N)N1 [imeglimin, (6R)—N^2, N^2,6-trimethyl-3,6-dihydro-1,3,5-triazine-2,4-diamine]
1 (14%) n, %: Subjects with any study drug related TEAE (1000 mg BID, CKD4 (n = 7)) | Subjects with any study drug related TEAE: Grade 1 - Mild (1000 mg BID, CKD4 (n = 7)) | Subjects with any TEAE by maximum severity: Grade 2 - Moderate (1500 mg QD, CKD3b (n = 17)) | Subjects with any study drug related TEAE (1500 mg QD, CKD3b (n = 17)) | Subjects with any study drug related TEAE: Grade 1 - Mild (1500 mg QD, CKD3b (n = 17))
2 (29%) n, %: Subjects with any TEAE by maximum severity: Grade 1 - Mild (1000 mg BID, CKD4 (n = 7)) | Subjects with any TEAE by maximum severity: Grade 2 - Moderate (1000 mg BID, CKD4 (n = 7)) | TEAE: Gastrointestinal disorders (1000 mg BID, CKD4 (n = 7))
2 (33%) n, %: Subjects with any TEAE by maximum severity: Grade 1 - Mild (1000 mg BID, CKD3b (n = 6)) | Subjects with any TEAE by maximum severity: Grade 2 - Moderate (1000 mg BID, CKD3b (n = 6)) | Subjects with any study drug related TEAE (1000 mg BID, CKD3b (n = 6))
1 (13%) n, %: Subjects with any TEAE by maximum severity: Grade 1 - Mild (500 mg BID, CKD3b (n = 8)) | Subjects with any TEAE by maximum severity: Grade 2 - Moderate (500 mg BID, CKD3b (n = 8)) | TEAE: Gastrointestinal disorders (500 mg BID, CKD3b (n = 8))
4 (57%) n, %: Subjects with any TEAE (1000 mg BID, CKD4 (n = 7)) | Subjects with any TEAE (1500 mg QD, CKD3b (n = 17))
1 (20%) n, %: Subjects with any TEAE (500 mg BID, CKD4 (n = 5)) | Subjects with any TEAE by maximum severity: Grade 2 - Moderate (500 mg BID, CKD4 (n = 5))
2 (25%) n, %: Subjects with any TEAE (500 mg BID, CKD3b (n = 8))
3 (43%) n, %: Subjects with any TEAE by maximum severity: Grade 1 - Mild (1500 mg QD, CKD3b (n = 17))
1 (17%) n, %: Subjects with any study drug related TEAE: Grade 1 - Mild (1000 mg BID, CKD3b (n = 6)) | Subjects with any study drug related TEAE: Grade 2 - Moderate (1000 mg BID, CKD3b (n = 6)) | TEAE: Gastrointestinal disorders (1000 mg BID, CKD3b (n = 6))
4 (67%) n, %: Subjects with any TEAE (1000 mg BID, CKD3b (n = 6))
0 n, %: Subjects with any TEAE by maximum severity: Grade 3 - Severe (500 mg BID, CKD3b (n = 8)) | Subjects with any TEAE by maximum severity: Grade 4 - Life-threatening (500 mg BID, CKD3b (n = 8)) | Subjects with any TEAE by maximum severity: Grade 5 - Death (500 mg BID, CKD3b (n = 8)) | Subjects with any study drug related TEAE (500 mg BID, CKD3b (n = 8)) | Subjects with any study drug related TEAE: Grade 1 - Mild (500 mg BID, CKD3b (n = 8)) | Subjects with any study drug related TEAE: Grade 2 - Moderate (500 mg BID, CKD3b (n = 8)) | Subjects with any study drug related TEAE: Grade 3 - Severe (500 mg BID, CKD3b (n = 8)) | Subjects with any study drug related TEAE: Grade 4 - Life-threatening (500 mg BID, CKD3b (n = 8)) | Subjects with any study drug related TEAE: Grade 5 - Death (500 mg BID, CKD3b (n = 8)) | Subjects with any TEAE by maximum severity: Grade 1 - Mild (500 mg BID, CKD4 (n = 5)) | Subjects with any TEAE by maximum severity: Grade 3 - Severe (500 mg BID, CKD4 (n = 5)) | Subjects with any TEAE by maximum severity: Grade 4 - Life-threatening (500 mg BID, CKD4 (n = 5)) | Subjects with any TEAE by maximum severity: Grade 5 - Death (500 mg BID, CKD4 (n = 5)) | Subjects with any study drug related TEAE (500 mg BID, CKD4 (n = 5)) | Subjects with any study drug related TEAE: Grade 1 - Mild (500 mg BID, CKD4 (n = 5)) | Subjects with any study drug related TEAE: Grade 2 - Moderate (500 mg BID, CKD4 (n = 5)) | Subjects with any study drug related TEAE: Grade 3 - Severe (500 mg BID, CKD4 (n = 5)) | Subjects with any study drug related TEAE: Grade 4 - Life-threatening (500 mg BID, CKD4 (n = 5)) | Subjects with any study drug related TEAE: Grade 5 - Death (500 mg BID, CKD4 (n = 5)) | TEAE: Gastrointestinal disorders (500 mg BID, CKD4 (n = 5)) | Subjects with any TEAE by maximum severity: Grade 3 - Severe (1000 mg BID, CKD3b (n = 6)) | Subjects with any TEAE by maximum severity: Grade 4 - Life-threatening (1000 mg BID, CKD3b (n = 6)) | Subjects with any TEAE by maximum severity: Grade 5 - Death (1000 mg BID, CKD3b (n = 6)) | Subjects with any study drug related TEAE: Grade 3 - Severe (1000 mg BID, CKD3b (n = 6)) | Subjects with any study drug related TEAE: Grade 4 - Life-threatening (1000 mg BID, CKD3b (n = 6)) | Subjects with any study drug related TEAE: Grade 5 - Death (1000 mg BID, CKD3b (n = 6)) | Subjects with any TEAE by maximum severity: Grade 3 - Severe (1000 mg BID, CKD4 (n = 7)) | Subjects with any TEAE by maximum severity: Grade 4 - Life-threatening (1000 mg BID, CKD4 (n = 7)) | Subjects with any TEAE by maximum severity: Grade 5 - Death (1000 mg BID, CKD4 (n = 7)) | Subjects with any study drug related TEAE: Grade 2 - Moderate (1000 mg BID, CKD4 (n = 7)) | Subjects with any study drug related TEAE: Grade 3 - Severe (1000 mg BID, CKD4 (n = 7)) | Subjects with any study drug related TEAE: Grade 4 - Life-threatening (1000 mg BID, CKD4 (n = 7)) | Subjects with any study drug related TEAE: Grade 5 - Death (1000 mg BID, CKD4 (n = 7)) | Subjects with any TEAE by maximum severity: Grade 3 - Severe (1500 mg QD, CKD3b (n = 17)) | Subjects with any TEAE by maximum severity: Grade 4 - Life-threatening (1500 mg QD, CKD3b (n = 17)) | Subjects with any TEAE by maximum severity: Grade 5 - Death (1500 mg QD, CKD3b (n = 17)) | Subjects with any study drug related TEAE: Grade 2 - Moderate (1500 mg QD, CKD3b (n = 17)) | Subjects with any study drug related TEAE: Grade 3 - Severe (1500 mg QD, CKD3b (n = 17))
